Each structure is given as a SMILES string. Active and inactive are the calls of the source. No cut-off for these calls is given here.

In data set [1] the test system is Plasmodium falciparum. Description: Antiplasmodial activity against synchronized ring stage of chloroquine-sensitive Plasmodium falciparum 3D7 infected in human erythrocytes after 48 hrs by SYBR Green 1 dye based fluorescence assay. Conditions: 3D7, 48 h. Type of data set: functional, organism-based.
Data set [2] deals with Plasmodium falciparum. Kind of data set: Antiplasmodial activity against synchronized ring stage of chloroquine-resistant Plasmodium falciparum Dd2 infected in human erythrocytes after 48 hrs by SYBR Green 1 dye based fluorescence assay. Type of data set: functional, organism-based. The following applies: Dd2, 48 h.
Data set [3] in a line: Resistance index, ratio of IC50 for synchronized ring stage of chloroquine-resistant Plasmodium falciparum Dd2 infected in human erythrocytes to IC50 for synchronized ring stage of chloroquine-sensitive Plasmodium falciparum 3D7 infected in human erythrocytes. Type of data set: functional.
A short description of data set [4]: Selectivity index, ratio of IC50 for human HeLa cells to IC50 for synchronized ring stage of chloroquine-sensitive Plasmodium falciparum 3D7 infected in human erythrocytes. Type of data set: toxicity, cell-based. The following applies: read-out: Ratio IC50.
Data set [5] relates to Plasmodium falciparum. Description: Plasmodicidal activity against synchronized ring stage of chloroquine-resistant Plasmodium falciparum INDO infected in human erythrocytes assessed as parasite killing at 8 uM treated for 6 to 48 hrs followed by compound wash out measured after 48 to 90 hrs by Giemsa staining based microscopic analysis. Type of data set: functional, organism-based.

Data set [6] has as its system Plasmodium falciparum. Kind of data set: Plasmodicidal activity against synchronized schizont stage of chloroquine-resistant Plasmodium falciparum INDO infected in human erythrocytes assessed as parasite killing at 8 uM treated for 12 hrs followed by compound wash out measured after 48 hrs by Giemsa staining based microscopic analysis. Type of data set: functional, organism-based.

For data set [7], the system named is Plasmodium falciparum. Description: Synergistic antiplasmodial activity against synchronized ring stage of chloroquine-resistant Plasmodium falciparum INDO infected in human erythrocytes assessed as parasite growth inhibition at FIC90 treated for 6 to 48 hrs followed by compound wash out measured after 48 to 90 hrs in presence of chloroquine by Giemsa staining based microscopic analysis. Type of data set: functional, organism-based.

Data set [8] deals with Plasmodium falciparum. Kind of data set: Synergistic antiplasmodial activity against synchronized ring stage of chloroquine-resistant Plasmodium falciparum INDO infected in human erythrocytes assessed as parasite growth inhibition at FIC90 treated for 6 to 48 hrs followed by compound wash out measured after 48 to 90 hrs in presence of artemisinin by Giemsa staining based microscopic analysis. Type of data set: functional, organism-based.

The test system of data set [9] is Plasmodium falciparum. Description: Synergistic antiplasmodial activity against synchronized schizont stage of chloroquine-resistant Plasmodium falciparum INDO infected in human erythrocytes assessed as parasite growth inhibition at FIC90 treated for 12 hrs followed by compound wash out measured after 48 hrs in presence of artemisinin by Giemsa staining based microscopic analysis. Type of data set: functional, organism-based.

Data set [10] has as its system Plasmodium falciparum. Description: Synergistic antiplasmodial activity against synchronized ring stage of chloroquine-resistant Plasmodium falciparum INDO infected in human erythrocytes assessed as parasite growth inhibition at 2 times FIC100 treated for 6 to 48 hrs followed by compound wash out measured after 48 to 90 hrs in presence of chloroquine by Giemsa staining based microscopic analysis. Type of data set: functional, organism-based.

Data set [11] relates to Plasmodium falciparum. Kind of data set: Synergistic plasmodicidal activity against synchronized ring stage of chloroquine-resistant Plasmodium falciparum INDO infected in human erythrocytes assessed as parasite killing at 2 times FIC100 treated for 6 to 48 hrs followed by compound wash out measured after 48 to 90 hrs followed by compound wash out measured after 48 to 90 hrs in presence of artemisinin by Giemsa staining based microscopic analysis. Type of data set: functional, organism-based.

Data set [12] relates to Plasmodium falciparum. Kind of data set: Synergistic plasmodicidal activity against synchronized trophozoite stage of chloroquine-resistant Plasmodium falciparum INDO infected in human erythrocytes assessed as parasite killing at 2 times FIC100 treated for 18 to 24 hrs followed by compound wash out measured after 48 to 54 hrs followed by compound wash out measured after 48 to 54 hrs in presence of artemisinin by Giemsa staining based microscopic analysis. Type of data set: functional, organism-based.

For data set [13], the system named is Plasmodium falciparum. Kind of data set: Synergistic plasmodicidal activity against synchronized schizont stage of chloroquine-resistant Plasmodium falciparum INDO infected in human erythrocytes assessed as parasite killing at 2 times FIC100 treated for 12 hrs followed by compound wash out measured after 48 hrs in presence of artemisinin by Giemsa staining based microscopic analysis. Type of data set: functional, organism-based.

For data set [14], the system named is Plasmodium falciparum. Description: Induction of apoptosis in synchronized trophozoite stage of chloroquine-resistant Plasmodium falciparum INDO infected in human erythrocytes assessed as chromatin fragmentation at 8 uM by Hoechst 33342 staining based fluorescence microscopic analysis. The following applies: TDE = time-dependent effect. Type of data set: functional, organism-based.

Data set [15] concerns Plasmodium falciparum. Description: Induction of apoptosis in synchronized trophozoite stage of chloroquine-resistant Plasmodium falciparum INDO infected in human erythrocytes assessed as chromatin fragmentation at 8 uM after 24 hrs by agarose gel electrophoresis method. Type of data set: functional, organism-based.

In general, IC50 refers to the concentration that inhibits the measured activity by half. Lower therefore signals greater potency in that assay. As to `C=CCc1cc(/C=C/C(=O)c2cccc(C(=O)/C=C/c3cc(CC=C)c(OC)c(OC)c3)c2)cc(OC)c1OC`, the results for the IC50 in the data set with Plasmodium falciparum [1] and with Plasmodium falciparum [2] were 2500 nM and 3500 nM, respectively. The “Ratio IC50” value in data set [3] was determined as 1.4. Further, the selectivity ratio in data set [4] was 11.2. In addition, the outcome with Plasmodium falciparum [5], in the data set with Plasmodium falciparum [6], in the data set with Plasmodium falciparum [7], in the data set on Plasmodium falciparum [8], in the data set on Plasmodium falciparum [9] and in the data set with Plasmodium falciparum [10] was Active. The result in the data set with Plasmodium falciparum [11] and in the data set on Plasmodium falciparum [15] was Active. In addition, the outcome in the data set on Plasmodium falciparum [12] and in the data set on Plasmodium falciparum [13] was inactive. In addition, the Activity entry in the data set on Plasmodium falciparum [14] was “Tde”.
